Like-named read-outs stand apart in the source and are kept apart here.

Data set [1] in a line: Stability in mouse hepatocytes. It counts as in vitro ADME. As to the method: (§1) Stability in hepatocytes for select compounds disclosed in the application was evaluated in two species (mouse and human) according to the following procedure. Compounds and positive control samples were dissolved in 100% DMSO at 5 mM. Cryopreserved hepatocytes were thawed and resuspended in Hepatocyte Basal Medium (HBM-Lonza CC-3199) supplemented with CC-4182 (complete hepatocyte culture medium). Test compounds were diluted into cell suspension (1 million cells/ml) from the stock solutions to have a test compound concentration of 5 μM (0.1% DMSO). Incubation was performed in 24-well plates, at 37° C. in a DUBNOFF water bath, under low shaking. Each compound was tested at 6 time points, in duplicates (0, 15, 30, 60, 120 and 240 min). At each time point, an aliquot of 120 μl was taken and transferred to a 96-well deep plate. The reaction was stopped with the addition of one volume of 100% acetonitrile plus 0.1% formic acid and the appropriate internal standard. Then samples were centrifuged at 1100×g for 30 min at +4° C. and supernatants were transferred to a new 96-deepwell plate. Samples were evaporated under N2 and reconstituted in H2O/ACN 0.1% Formic Acid (98:2). Analysis was performed without a calibration curve (Acquity UPLC-Waters; Sciex API4000). Time 0 was obtained adding acetonitrile before addition of the test compound. […] The half-life (t1/2) expressed in hours is derived using Equation 1 as shown in Example 64.

The nature of data set [2]: Stability in human plasma. The class given is in vitro ADME. The following applies: 37° C. In outline:
(§2)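 Test compound at 3 μM (0.1% DMSO) was incubated in mouse or human plasma at 37 °C and sampled in duplicate at 0, 10, 20, 30, 40 and 60 min. Reactions were stopped with acetonitrile/formic acid containing internal standard. Remaining parent was measured by UPLC-MS/MS without a calibration curve.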

A short description of data set [3]: Stability in mouse plasma. The class given is in vitro ADME. In outline: as §2
Data set [4] can be described thus: Stability in human hepatocytes. It counts as in vitro ADME. The conditions noted are these: for half-life at 5 µM: t1/2, Human Hepatocytes; for half-life: 5 μM, 1 million cells/ml, 37° C., human hepatocytes. As to the method: as §1
In data set [5] the test system is PANK2 silenced human neuroblastoma IMR32 cells (PANK2−/−). Briefly: Coenzyme A assay in PANK2 silenced cells (LC-MS quantification of free CoA). The class given is cell-based. The following applies: compound added twice (24 h + 24 h), relative to 0.1% DMSO controls. Summed up:
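PANK2 shRNA-silenced IMR32 neuroblastoma cells were treated with compound (0.1% DMSO) for 24 h, then re-dosed with fresh compound for a further 24 h at 37 °C. TFA extracts of 1×10^6 cells were assayed for free CoA by LC-MS/MS (MRM 768.1→261.6/136.1). Results are given as fold change versus DMSO controls.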

Where [6] appears, read: t1/2, Mouse Hepatocytes, Diastereoisomer A.
[7] abbreviates: t1/2, Mouse Hepatocytes, Diastereoisomer B.
Where [8] appears, read: human, plasma, Diastereoisomer A (upfield shift in 31P NMR), read-out: t1/2, Human Plasma, Diastereoisomer A (converted).
Where [9] appears, read: human, plasma, Diastereoisomer B, read-out: t1/2, Human Plasma, Diastereoisomer B (converted).

In the case of `COC(=O)CCNC(=O)[C@@H]1OP(=O)(N[C@H](C)C(=O)OCCc2ccccc2)OCC1(C)C` (stereo partly drawn) [compound 26, methyl 3-((4R)-5,5-dimethyl-2-oxido-2-(((R)-1-oxo-1-phenethoxypropan-2-yl)amino)-1,3,2-dioxaphosphinane-4-carboxamido)propanoate], the half-life at 5 µM was less than 15 min in data set [1] (setting [6]), less than 15 min in data set [1] (setting [7]), 18.6 min in data set [4] (Diastereoisomer A) and less than 15 min in data set [4] (Diastereoisomer B). Further, the half-life at 3 µM was greater than 60 min in data set [2] (setting [8]); greater than 60 min in data set [2] (setting [9]); less than 9.6 min in data set [3] (mouse, plasma). Moreover, the “t1/2, Mouse Plasma, Diastereoisomer B” value in data set [3] (mouse, plasma, 3 µM) was less than 9.6 min. The “PANK2−/− CoA (Fold Increase): fold increase in Coenzyme A (CoA) levels relative to controls” value in data set [5] is 2.29 Fold Increase.

As for `CC(C)(C)C(=O)OCOP1(=O)OCC(C)(C)[C@H](C(=O)NCCC(=O)OCc2ccncc2)O1` (stereo in doubt) [Compound No. 71, (((2S,4R)-5,5-dimethyl-2-oxido-4-((3-oxo-3-(pyridin-4-ylmethoxy)propyl)carbamoyl)-1,3,2-dioxaphosphinan-2-yl)oxy)methyl pivalate], the half-life at 5 µM in data set [1] (setting [6]), in data set [1] (setting [7]), in data set [4] (Diastereoisomer A) and in data set [4] (Diastereoisomer B) was less than 15 min in each case. For the same compound, the half-life at 3 µM in data set [2] (setting [8]) was greater than 60 min; in data set [2] (setting [9]), less than 9.6 min; in data set [3] (mouse, plasma), less than 9.6 min. Besides, in data set [3] (mouse, plasma, 3 µM), the “t1/2, Mouse Plasma, Diastereoisomer B” value is less than 9.6 min. Further, the “PANK2−/− CoA (Fold Increase): fold increase in Coenzyme A (CoA) levels relative to controls” value in data set [5] is given as 39.37 Fold Increase.

Take `COC(=O)CCNC(=O)[C@@H]1OP(=O)(N[C@H](C(=O)OC)C(C)C)OCC1(C)C` (stereo partly drawn) [compound 1, (2S)-methyl 2-(((4R)-4-((3-methoxy-3-oxopropyl)carbamoyl)-5,5-dimethyl-2-oxido-1,3,2-dioxaphosphinan-2-yl)amino)-3-methylbutanoate]: the half-life at 5 µM in data set [1] (Diastereoisomer A (upfield shift in 31P NMR), 5 μM, 1 million cells/ml, 37° C., mouse hepatocytes, read-out: t1/2, Mouse Hepatocytes, Diastereoisomer A (converted)) was 25.8 min; in data set [1] (Diastereoisomer B, 5 μM, 1 million cells/ml, 37° C., mouse hepatocytes, read-out: t1/2, Mouse Hepatocytes, Diastereoisomer B (converted)), less than 15 min. In addition, the half-life at 3 µM is greater than 60 min in data set [2] (Diastereoisomer A (upfield shift in 31P NMR), read-out: t1/2, Human Plasma, Diastereoisomer A (converted)) and less than 9.6 min in data set [3] (Diastereoisomer A (upfield shift in 31P NMR), 3 μM, 37° C., mouse plasma, read-out: t1/2, Mouse Plasma, Diastereoisomer A). The “t1/2, Human Plasma, Diastereoisomer B” value in data set [2] (Diastereoisomer B, 3 μM) was greater than 60 min. For the same compound, the “t1/2, Mouse Plasma, Diastereoisomer B” value in data set [3] (Diastereoisomer B, 3 μM, 37° C., mouse plasma) was less than 9.6 min. The half-life in data set [4] (Diastereoisomer A (upfield shift in 31P NMR), read-out: t1/2, Human Hepatocytes, Diastereoisomer A (converted)) was 77.4 min; in data set [4] (Diastereoisomer B, read-out: t1/2, Human Hepatocytes, Diastereoisomer B (converted)) it was 78.6 min. For the same compound, the “PANK2−/− CoA (Fold Increase): fold increase in Coenzyme A (CoA) levels relative to controls” value in data set [5] is reported as 1.51 Fold Increase.

Regarding `COC(=O)CCNC(=O)[C@@H]1OP(=O)(N[C@@H](Cc2cccnc2)C(=O)OC)OCC1(C)C` (stereo partly drawn) [compound 25, (2S)-methyl 2-(((4R)-4-((3-methoxy-3-oxopropyl)carbamoyl)-5,5-dimethyl-2-oxido-1,3,2-dioxaphosphinan-2-yl)amino)-3-(pyridin-3-yl)propanoate], the half-life at 5 µM in data set [1] (setting [6]) was 36 min; in data set [4] (Diastereoisomer A) it was greater than 240 min. Also, the half-life at 3 µM in data set [2] (setting [8]) is greater than 60 min; in data set [3] (mouse, plasma), less than 9.6 min. Besides, in data set [5], the “PANK2−/− CoA (Fold Increase): fold increase in Coenzyme A (CoA) levels relative to controls” value came out at 0.95 Fold Increase.

As for `COC(=O)CCNC(=O)[C@@H]1OP(=O)(N[C@@H](Cc2ccc(OC(C)(C)C)cc2)C(=O)OC(C)(C)C)OCC1(C)C` (stereo partly shown) [compound 15], the half-life at 5 µM in data set [1] (setting [6]) is less than 15 min; in data set [1] (setting [7]) it was less than 15 min; in data set [4] (Diastereoisomer A), 18.6 min; in data set [4] (Diastereoisomer B), less than 15 min. Besides, the half-life at 3 µM in data set [2] (setting [8]) was greater than 60 min; in data set [2] (setting [9]) it was greater than 60 min; in data set [3] (mouse, plasma), less than 9.6 min. The “t1/2, Mouse Plasma, Diastereoisomer B” value in data set [3] (mouse, plasma, 3 µM) was less than 9.6 min. Moreover, in data set [5], the “PANK2−/− CoA (Fold Increase): fold increase in Coenzyme A (CoA) levels relative to controls” value stood at 0.5 Fold Increase.

Consider `COC(=O)CCNC(=O)[C@@H]1OP(=O)(N[C@H](C(=O)OC(C)(C)C)C2CCCCC2)OCC1(C)C` (stereo partly drawn) [compound 14, methyl 3-((4R)-2-(((S)-2-(tert-butoxy)-1-cyclohexyl-2-oxoethyl)amino)-5,5-dimethyl-2-oxido-1,3,2-dioxaphosphinane-4-carboxamido)propanoate], for which the half-life at 5 µM is less than 15 min in data set [1] (setting [6]), less than 15 min in data set [1] (setting [7]), 17.4 min in data set [4] (Diastereoisomer A) and less than 15 min in data set [4] (Diastereoisomer B). Also, the half-life at 3 µM in data set [2] (setting [8]) is greater than 60 min; in data set [2] (setting [9]), greater than 60 min; in data set [3] (mouse, plasma), less than 9.6 min. For the same compound, the “t1/2, Mouse Plasma, Diastereoisomer B” value in data set [3] (mouse, plasma, 3 µM) is less than 9.6 min. Moreover, the “PANK2−/− CoA (Fold Increase): fold increase in Coenzyme A (CoA) levels relative to controls” value in data set [5] was 1.59 Fold Increase.

Take `COC(=O)CCNC(=O)[C@@H]1OP(=O)(N[C@H](C(=O)OCc2ccccc2)C(C)C)OCC1(C)C` (stereo partly drawn) [compound 13, benzyl ((4R)-4-((3-methoxy-3-oxopropyl)carbamoyl)-5,5-dimethyl-2-oxido-1,3,2-dioxaphosphinan-2-yl)-L-valinate]: the half-life at 5 µM was 28.2 min in data set [1] (setting [6]), 24 min in data set [1] (setting [7]), 31.8 min in data set [4] (Diastereoisomer A) and less than 15 min in data set [4] (Diastereoisomer B). For the same compound, the half-life at 3 µM was greater than 60 min in data set [2] (setting [8]); greater than 60 min in data set [2] (setting [9]); less than 9.6 min in data set [3] (mouse, plasma). Also, in data set [3] (mouse, plasma, 3 µM), the “t1/2, Mouse Plasma, Diastereoisomer B” value is less than 9.6 min. Besides, the “PANK2−/− CoA (Fold Increase): fold increase in Coenzyme A (CoA) levels relative to controls” value in data set [5] came to 1 Fold Increase.

As for `COC(=O)CCNC(=O)[C@@H]1OP(=O)(OCOC(=O)c2ccc(CN3CCCC3)cc2)OCC1(C)C` (stereo partly drawn) [Compound No. 76, (((4R)-4-((3-methoxy-3-oxopropyl)carbamoyl)-5,5-dimethyl-2-oxido-1,3,2-dioxaphosphinan-2-yl)oxy)methyl 4-(pyrrolidin-1-ylmethyl)benzoate], the half-life at 5 µM was less than 15 min in data set [1] (setting [6]), less than 15 min in data set [1] (setting [7]), 31.2 min in data set [4] (Diastereoisomer A) and less than 15 min in data set [4] (Diastereoisomer B). In addition, the half-life at 3 µM was less than 9.6 min in data set [2] (setting [8]); less than 9.6 min in data set [2] (setting [9]); less than 9.6 min in data set [3] (mouse, plasma). For the same compound, in data set [3] (mouse, plasma, 3 µM), the “t1/2, Mouse Plasma, Diastereoisomer B” value was less than 9.6 min. Besides, the “PANK2−/− CoA (Fold Increase): fold increase in Coenzyme A (CoA) levels relative to controls” value in data set [5] amounted to 79.95 Fold Increase.

In the case of `COC(=O)CCNC(=O)[C@@H]1O[P@@](=O)(OCOC(=O)C(C)(C)C)OCC1(C)C` (single isomer, unassigned) [Compound No. 90], the half-life at 5 µM in data set [1] (setting [6]) and in data set [4] (Diastereoisomer A) was less than 15 min in each case. In addition, the half-life at 3 µM in data set [2] (setting [8]) was 45.6 min; in data set [3] (mouse, plasma), less than 9.6 min. The “PANK2−/− CoA (Fold Increase): fold increase in Coenzyme A (CoA) levels relative to controls” value in data set [5] is on record as 286.0 Fold Increase.

On to `COC(=O)CCNC(=O)[C@@H]1OP(=O)(N[C@@H](C)C(=O)OC[C@H]2CCC(=O)N2)OCC1(C)C` (stereo partly drawn) [compound 23, methyl 3-((4R)-5,5-dimethyl-2-oxido-2-(((S)-1-oxo-1-(((R)-5-oxopyrrolidin-2-yl)methoxy)propan-2-yl)amino)-1,3,2-dioxaphosphinane-4-carboxamido)propanoate], for which the half-life at 5 µM was 70.8 min in data set [1] (setting [6]), 33 min in data set [1] (setting [7]), greater than 240 min in data set [4] (Diastereoisomer A) and greater than 240 min in data set [4] (Diastereoisomer B). Further, the half-life at 3 µM in data set [2] (setting [8]) was less than 9.6 min; in data set [2] (setting [9]), 57.6 min; in data set [3] (mouse, plasma) it was less than 9.6 min. For the same compound, in data set [3] (mouse, plasma, 3 µM), the “t1/2, Mouse Plasma, Diastereoisomer B” value is less than 9.6 min. Also, the “PANK2−/− CoA (Fold Increase): fold increase in Coenzyme A (CoA) levels relative to controls” value in data set [5] turned out to be 2.08 Fold Increase.
